This is an account of results in patent US11377473B2, “Albumin-binding prodrugs of auristatin E derivatives” (priority 2017, dated 2022).

Data set [1] can be described thus: Reconstitution stability (maleimide hydrolysis, loss of API) in reconstitution buffer. Format: physicochemical. As to conditions: for stability of the reconstituted drug (maleimide hydrolysis and loss of API): 50 mM sodium phosphate buffer pH 7.6, 5% sucrose, 2-HPβCD, room temperature, 240 minutes; for maleimide hydrolyzed: after 4 hours incubation at room temperature in reconstitution buffer (50 mM sodium phosphate pH 7.65 containing 4% HPβCD and 5% sucrose). As for the experimental part: The albumin-binding AE-Keto drug derivatives were reconstituted in 50 mM sodium phosphate buffer pH 7.6 which contained 5% sucrose (w/v) and 2% 2-hydroxypropyl-β-cyclodextrin (2-HPβCD). Both drugs were reconstituted at a concentration of 1277 μM (equal to 4.5 mg/kg murine xenograft dose), the dissolution of both drugs was confirmed by HPLC (method 2, 254 nm). Stability of the reconstituted drugs was monitored by HPLC at room temperature every 15 minutes over a period of 240 minutes for maleimide hydrolysis and loss of API.
The albumin-binding AE-Ester derivatives were reconstituted in 50 mM sodium phosphate buffer pH 7.6 which contained 5% sucrose (w/v) and 4% 2-HPβCD. Both drugs were reconstituted at a concentration of 655 μM (equal to 2.4 mg/kg murine xenograft dose), the dissolution of both drugs was confirmed by HPLC (method 2, 310 nm). Stability of the reconstituted drugs was monitored by HPLC at room temperature every 15 minutes over a period of 240 minutes for maleimide hydrolysis and loss of API.

The nature of data set [2]: Dose finding studies. As for the experimental part: Female immunodeficient NMRI nude mice, from Janvier, France, received 5×10^6-10^7 cultured cancer cell in buffer/Matrigel (1:1) inoculated subcutaneously, until tumors were palpable and had reached the desired volume (for xenograft studies).
Animals were kept in cages (Macrolon Type-II wire-mesh) with temperature maintained at 22±1° C., relative humidity of 50 f 10% and an air change rate of 60-fold per hour. Mice were kept under a 12-hour light/12-hour dark, artificial light cycle. The animals were fed with autoclaved Ssniff NM (Soest, Germany), and had access to sterile filtered and acidified (pH 4.0) tap water which was changed twice weekly. Feed and water were provided ad libitum. […] The health of the animals was examined at the start of the experiment and twice per day during the experiment. Identification used: ear mark and cage labels. Starting on day 0, animals were weighed two or three times per week and mean body weight per group was related to the initial value in percent to calculate the body weight change (BWC). Tumor diameters were determined by a two-dimensional measurement with a caliper on the day of randomization (Day 0) and then twice or three times per week. Tumor volumes were calculated according to the following equation:
Tumor Vol [mm^3]=1 [mm]×w^2 [mm^2]×0.5, where “1” is the length and “w” is width of the tumor. The relative volume of an individual tumor on day X (RTVx) was calculated by dividing the absolute individual tumor volume [mm^3] of the respective tumor on day X (Tx) by the absolute individual tumor volume of the same tumor on the day of randomization multiplied by 100%. Schedules were applied to the extent that animal welfare policies allow. Termination of individual mice was carried out at tumor volume >1500 mm^3 (unilateral) or when ulceration was observed. Statistical comparison was performed with the Mann-Whitney U-test. Dose Finding Studies of Auristatin E and the Albumin-Binding Auristatin E Derivatives AE-Keto-Sulf07 and AE-Ester-Sulf07.
Stock solutions were prepared as follows: • 1) 3 mice per group, 26 g average weight on day of randomization: 0.3, 0.6 or 1.2 mg/kg dose auristatin E TFA salt (AE equiv.) dosed once weekly for 4 weeks on day 0, 6, 13, 20≡0.35-1.41 mg/kg≡7.1-28.3 μg/20 g mouse. Sample preparation: 8.5 mg weighed in a 50 mL vial dissolved in 30.0 mL 25/75 tert-butanol/10 mM sodium phosphate buffer, 5% sucrose—pH 7.0; 0.2-0.8 mL were aliquoted in 2 mL vials depending on the final desired final dose. The vials were frozen for 1 h at −40° C. and lyophilized at −20° C. over ˜36 h and then stoppered. On day of injection, the lyophilized samples were reconstituted with 0.8 mL of 10 mM sodium phosphate buffer, 20% propylene glycol—pH 7.0. • 2) 3 mice per group, 26 g average weight on day of randomization: 1.2 and 2.4 mg/kg AE-Keto-Sulf07 (AE equiv.) dosed twice weekly for 4 weeks ≡1.94-3.87 mg/kg≡38.7 and 77.4 μg/20 g mouse. Sample preparation: 11.0 mg weighed in a 30 mL vial dissolved in 14.2 mL 50/50 tert-butanol/10 mM sodium phosphate buffer, 5% sucrose—pH 7.0; 0.4-0.8 mL were aliquoted in 2 mL vials depending on the final desired final dose. The vials were frozen for 1 h at −40° C. and lyophilized at −20° C. over ˜36 h and then stoppered. On the day of injection, the lyophilized samples were reconstituted with 0.8 mL of 10 mM sodium phosphate buffer, 20% propylene glycol—pH 7.0. • 3) 3 mice per group, 26 g average weight on day of randomization: 1.2, 1.6 or 2.0 mg/kg AE-Ester-Sulf07 (AE equiv.) dosed twice weekly for 4 weeks on day≡2.18-3.64 mg/kg≡43.7-72.8 μg/20 g mouse. Sample preparation: 19.2 mg weighed in a 30 mL vial dissolved in 26.3 mL 50/50 tert-butanol/10 mM sodium phosphate buffer, 5% sucrose—pH 7.0; 0.48-0.8 mL were aliquoted in 2 mL vials depending on the final desired final dose. The vials were frozen for 1 h at −40° C. and lyophilized at −20° C. over ˜36 h and then stoppered.

Data set [3] deals with renal cell cancer model RXF631. Description: Human renal cell cancer model RXF631, small tumors. In kind it is in vivo, NMRI nude mice. The source says: Mice were kept under a 14-hour light/10-hour dark, artificial light cycle. The animals were fed with autoclaved Teklad Global 19% Protein Extruded Diet (T.2019S.12) from Envigo RMS SARL and had access to sterile filtered and acidified (pH 2.5) tap water which was changed twice weekly. Feed and water were provided ad libitum. […] Animals were routinely monitored twice daily on working days and daily on Saturdays and Sundays. Starting on day 0, animals were weighed twice a week. Relative body weights (RBW) of individual animals were calculated by dividing the individual absolute body weight on day X (BWx) by the individual body weight on the day of randomization multiplied by 100%. […] Tumor volumes were calculated according to the following equation: […]
Statistical analysis was only carried out if at least 50% of the initially randomized animals in a relevant group were still alive. Comparisons between test groups were carried out for the same days. By convention, p-values ≤0.05 indicate significance of tumor inhibition. Statistical calculations were performed using GraphPad Prism bioanalytic software (San Diego Calif. USA, www.graphpad.com).
The initial evaluation of auristatin E and the albumin-binding auristatin E derivative AE-Ester-Sulf07 in a human renal cell cancer model RXF631 was carried out as described in the general procedure for a patient-derived xenograft model.

Regarding “2-(2-(1-(4-(((1S,2R)-2-((2R,3R)-3-((S)-1-((3R,4R,5S)-4-((S)-2-((R)-2-(dimethylamino)-3-methylbutanamido)-N,3-dimethylbutanamido)-3-methoxy-5-methylheptanoyl)pyrrolidin-2-yl)-3-methoxy-2-methylpropanamido)-1-phenylpropoxy)carbonyl)phenyl)ethylidene)hydrazine-1-carbonyl)-5-(6-(2,5-dioxo-2,5-dihydro-1H-pyrrol-1-yl)hexanamido)benzenesulfonic acid [AE-Ester-Sulf07]”, in data set [1], the “stability of the reconstituted drug (maleimide hydrolysis and loss of API)” value was “more stable than AE-Ester-EMCH”; the maleimide hydrolyzed was determined as 2.5%. The “side effect compared with the other groups” value in data set [2] (4.0 mg/kg once weekly) is recorded as “lowest side effect”. Besides, the body weight change entry in data set [2] (2.0, 2.2, 2.4 mg/kg twice per week and 4.0, 4.4, 4.8 mg/kg once per week over four weeks) is given as “No body weight change”. In addition, the “appearance of skin irritation” value in data set [2] (all groups: 2.0, 2.2, 2.4 mg/kg twice per week and 4.0, 4.4, 4.8 mg/kg once per week) was 9 to 14 days. The tolerability entry in data set [2] (up to 2.0 mg/kg dosed twice weekly for four weeks) is given as “no evident sign of toxicity”. Besides, in data set [3] (2.2 mg/kg (3.0 mg/kg on day 15 and 19) twice weekly), the minimum tumor volume is given as 1 mm^3. In data set [3] (2.2 mg/kg (3.0 mg/kg on day 15 and 19) twice weekly, day 24 to day 53), the tumor response result is on record as “complete remission (complete remission <10%)”. In addition, in data set [3] (2.2 mg/kg (3.0 mg/kg on injection day 15 and 19) versus auristatin E 0.3 mg/kg, twice weekly), the “p, antitumor efficacy versus auristatin E” value was less than 0.05. Moreover, in data set [3] (2.2-3.0 mg/kg twice weekly), the side effects entry was “Wounds due to biting and scratching were also observed starting from day 17”. Also, the animals lost result in data set [3] (2.2-3.0 mg/kg, on day 20, 43 and 66) is “Two mice died, and one had to be sacrificed for general bad conditions”. In addition, in data set [3] (2.2-3.0 mg/kg, reached on day 31), the “transient body weight loss” value is given as 9%.
As to `CC[C@H](C)[C@@H]([C@@H](CC(=O)N1CCC[C@H]1[C@H](OC)[C@@H](C)C(=O)N[C@H](C)C(=NNC(=O)c1ccc(NC(=O)CCCCCN2C(=O)C=CC2=O)cc1S(=O)(=O)O)c1ccccc1)OC)N(C)C(=O)[C@@H](NC(=O)[C@H](C(C)C)N(C)C)C(C)C` [AE-Keto-Sulf07, 2-(2-((R)-2-((2R,3R)-3-((S)-1-((3R,4S,5S)-4-((S)-2-((S)-2-(dimethylamino)-3-methylbutanamido)-N,3-dimethylbutanamido)-3-methoxy-5-methylheptanoyl)pyrrolidin-2-yl)-3-methoxy-2-methylpropanamido)-1-phenylpropylidene)hydrazine-1-carbonyl)-5-(6-(2,5-dioxo-2,5-dihydro-1H-pyrrol-1-yl)hexanamido)benzenesulfonic acid], in data set [1], the “stability of the reconstituted drug (maleimide hydrolysis and loss of API)” value is listed as “more stable than AE-Keto-EMCH”. In data set [1], this compound displayed a maleimide hydrolyzed of 2.2%. Moreover, the tolerability result in data set [2] (6.5 mg/kg biweekly in later xenograft studies, treatment stopped after five injections) is given as “above the MTD”; in data set [2] (all doses tested (1.2 and 2.4 mg/kg), injected eight times on a biweekly schedule), “well tolerated”. For the same compound, in data set [2] (biweekly schedule), the safe dose amounted to 4.5 mg/kg.
As for `CC[C@H](C)[C@@H]([C@@H](CC(=O)N1CCC[C@H]1[C@H](OC)[C@@H](C)C(=O)N[C@H](C)[C@@H](O)c1ccccc1)OC)N(C)C(=O)[C@@H](NC(=O)[C@H](C(C)C)N(C)C)C(C)C` [auristatin E], the tolerability result in data set [2] (0.3 mg/kg once weekly for 4 weeks) is recorded as “well tolerated”; in data set [2] (0.6 mg/kg once weekly, no animal survived after the second injection), “high toxicity”; in data set [2] (1.2 mg/kg once weekly, no animal survived after the first injection), “high toxicity”. Moreover, in data set [2] (injected biweekly for four weeks (total of eight injections)), the “maximum tolerated dose (MTD)” value worked out at 0.3 mg/kg. Besides, the tumor response result in data set [3] (0.3 mg/kg twice weekly, up to day ˜40) is “stable disease (stable disease >75-125%)”.
